# Reference: article PMC10581841, “Rapid Separation of Asiatic Acid, Quercetin, and Kaempferol from Traditional Chinese Medicine Centella asiatica (L.) Urban Using HSCCC-Semi-Prep-HPLC and the Assessment of Their Potential as Fatty Acid Synthase Inhibitors” (International Journal of Analytical Chemistry, 2023)
# Like-named read-outs stand apart in the source and are kept apart here.
# Molecular target: T1, fatty acid synthetase (FAS) (Anas platyrhynchos, UniProt A0A0D3LZ43)
# T1 construct: native enzyme purified from fresh duck liver
# T1 sequence (A0A0D3LZ43 1-2514): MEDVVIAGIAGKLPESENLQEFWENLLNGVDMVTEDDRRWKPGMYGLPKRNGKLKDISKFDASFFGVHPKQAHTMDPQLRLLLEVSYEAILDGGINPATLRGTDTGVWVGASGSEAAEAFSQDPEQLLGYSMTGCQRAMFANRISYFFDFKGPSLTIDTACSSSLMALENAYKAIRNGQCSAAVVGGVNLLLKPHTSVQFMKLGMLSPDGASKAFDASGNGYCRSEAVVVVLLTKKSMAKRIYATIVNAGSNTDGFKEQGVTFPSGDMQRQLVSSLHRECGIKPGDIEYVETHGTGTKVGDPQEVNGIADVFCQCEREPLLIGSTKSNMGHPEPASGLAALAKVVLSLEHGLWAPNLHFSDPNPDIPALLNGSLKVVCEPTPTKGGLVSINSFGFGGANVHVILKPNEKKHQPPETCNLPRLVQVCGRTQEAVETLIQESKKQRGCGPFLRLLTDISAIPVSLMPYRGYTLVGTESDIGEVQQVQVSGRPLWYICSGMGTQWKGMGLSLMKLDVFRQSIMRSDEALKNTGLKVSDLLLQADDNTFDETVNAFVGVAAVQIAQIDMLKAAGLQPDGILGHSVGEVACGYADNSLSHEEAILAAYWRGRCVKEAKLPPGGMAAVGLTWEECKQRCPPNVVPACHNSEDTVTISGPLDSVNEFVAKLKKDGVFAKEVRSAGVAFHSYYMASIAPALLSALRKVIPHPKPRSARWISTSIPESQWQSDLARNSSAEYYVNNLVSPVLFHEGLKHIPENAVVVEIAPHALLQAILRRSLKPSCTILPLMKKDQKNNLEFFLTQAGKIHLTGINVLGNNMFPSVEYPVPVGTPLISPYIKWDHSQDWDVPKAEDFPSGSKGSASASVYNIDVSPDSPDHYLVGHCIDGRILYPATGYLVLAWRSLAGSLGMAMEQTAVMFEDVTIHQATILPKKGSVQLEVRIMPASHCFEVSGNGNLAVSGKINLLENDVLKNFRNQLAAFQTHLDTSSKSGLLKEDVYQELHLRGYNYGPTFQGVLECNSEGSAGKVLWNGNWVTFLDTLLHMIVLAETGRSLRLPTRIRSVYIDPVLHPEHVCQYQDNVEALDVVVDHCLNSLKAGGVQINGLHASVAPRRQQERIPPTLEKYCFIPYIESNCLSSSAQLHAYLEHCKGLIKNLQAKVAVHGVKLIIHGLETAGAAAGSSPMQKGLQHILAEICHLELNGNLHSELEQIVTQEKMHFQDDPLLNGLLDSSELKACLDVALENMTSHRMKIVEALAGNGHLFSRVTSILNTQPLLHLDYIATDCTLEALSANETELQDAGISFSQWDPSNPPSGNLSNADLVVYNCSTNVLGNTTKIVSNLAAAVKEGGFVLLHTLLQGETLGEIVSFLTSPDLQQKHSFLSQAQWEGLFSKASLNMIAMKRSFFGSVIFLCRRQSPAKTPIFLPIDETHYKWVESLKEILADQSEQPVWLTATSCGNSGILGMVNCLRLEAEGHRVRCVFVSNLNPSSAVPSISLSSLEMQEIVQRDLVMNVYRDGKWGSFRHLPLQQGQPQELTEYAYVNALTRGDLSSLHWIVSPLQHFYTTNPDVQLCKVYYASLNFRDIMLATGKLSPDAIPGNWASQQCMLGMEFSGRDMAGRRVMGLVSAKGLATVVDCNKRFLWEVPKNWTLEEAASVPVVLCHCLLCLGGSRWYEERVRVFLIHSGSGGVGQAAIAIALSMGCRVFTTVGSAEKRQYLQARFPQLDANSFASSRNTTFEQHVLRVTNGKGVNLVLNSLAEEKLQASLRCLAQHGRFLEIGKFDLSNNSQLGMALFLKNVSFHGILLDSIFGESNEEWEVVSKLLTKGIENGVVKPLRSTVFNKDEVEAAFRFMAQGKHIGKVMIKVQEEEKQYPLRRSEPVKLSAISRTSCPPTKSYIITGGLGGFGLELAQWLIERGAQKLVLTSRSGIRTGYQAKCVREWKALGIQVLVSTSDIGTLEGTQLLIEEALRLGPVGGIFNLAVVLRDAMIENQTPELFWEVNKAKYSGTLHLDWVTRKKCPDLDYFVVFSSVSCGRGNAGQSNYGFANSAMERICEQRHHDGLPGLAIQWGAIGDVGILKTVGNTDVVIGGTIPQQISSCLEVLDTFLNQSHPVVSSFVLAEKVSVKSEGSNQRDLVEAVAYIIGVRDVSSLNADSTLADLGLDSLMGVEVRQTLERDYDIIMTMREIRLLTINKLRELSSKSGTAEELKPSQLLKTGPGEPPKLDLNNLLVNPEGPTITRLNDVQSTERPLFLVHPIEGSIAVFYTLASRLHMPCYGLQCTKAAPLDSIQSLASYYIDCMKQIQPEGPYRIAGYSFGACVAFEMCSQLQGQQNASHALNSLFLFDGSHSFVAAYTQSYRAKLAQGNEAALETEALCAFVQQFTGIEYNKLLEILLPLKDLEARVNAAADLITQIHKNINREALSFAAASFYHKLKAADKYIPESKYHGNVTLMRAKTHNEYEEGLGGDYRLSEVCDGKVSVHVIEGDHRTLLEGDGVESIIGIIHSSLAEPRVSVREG
# Experiment: UV spectrophotometric FAS activity assay at […] nm (NADPH)
# Format: biochemical
# [1] = read-out: IC50 (μg/mL) (converted)
IC50 [1] [µM],SMILES,IC50 [µM]
19.5,"C[C@H]1[C@H](C)CC[C@]2(C(=O)O)CC[C@]3(C)C(=CC[C@@H]4[C@@]5(C)C[C@@H](O)[C@H](O)[C@@](C)(CO)[C@@H]5CC[C@]43C)[C@H]12 [AA, asiatic acid]",
129,"O=c1c(O)c(-c2ccc(O)cc2)oc2cc(O)cc(O)c12 [KPL, kaempferol]",
,"O=c1c(O)c(-c2ccc(O)c(O)c2)oc2cc(O)cc(O)c12 [QCN, quercetin]",143
,"C[C@H]1[C@H](C)CC[C@]2(C(=O)O)CC[C@]3(C)C(=CC[C@@H]4[C@@]5(C)C[C@@H](O)[C@H](O)[C@@](C)(CO)[C@@H]5[C@H](O)C[C@]43C)[C@H]12 [MA, madecassic acid]",21.5
